Results as given in the supplement of paper PMC11451515.

Tested on: NOMO1
Assay: cell viability relative to DMSO control; higher = less cytotoxic
Settings: 48 h
Procedure, shortened: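 NOMO1, SEM and P12-Ichikawa leukemia cells spent at least four passages adapting to each medium before use. They were seeded at 500 cells/well (NOMO1, SEM) or 1000 cells/well (P12-Ichikawa) in 5 μl in 1536-well plates and pin-dosed with library compounds in DMSO at 11 threefold steps from 47 μM down to 0.79 nM. After 48 h at 37°C, CellTiter-Glo One luminescence was read. Viability is reported as a percentage of the DMSO wells on each plate, with cell-free wells as background.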

[1] = HPLM + 10% dialyzed FBS, 0.000781 µM
[2] = HPLM + 10% dialyzed FBS, 0.00234 µM
[3] = HPLM + 10% dialyzed FBS, 0.00702 µM
[4] = HPLM + 10% dialyzed FBS, 0.0211 µM
[5] = HPLM + 10% dialyzed FBS, 0.0632 µM
[6] = HPLM + 10% dialyzed FBS, 0.19 µM
[7] = HPLM + 10% dialyzed FBS, 0.569 µM
[8] = HPLM + 10% dialyzed FBS, 1.71 µM
[9] = HPLM + 10% dialyzed FBS, 5.12 µM
[10] = HPLM + 10% dialyzed FBS, 15.4 µM
[11] = HPLM + 10% dialyzed FBS, 46.1 µM
[12] = RPMI 5 mM glucose + 10% FBS, 0.000781 µM
[13] = RPMI 5 mM glucose + 10% FBS, 0.00234 µM
[14] = RPMI 5 mM glucose + 10% FBS, 0.00702 µM
[15] = RPMI 5 mM glucose + 10% FBS, 0.0211 µM
[16] = RPMI 5 mM glucose + 10% FBS, 0.0632 µM
[17] = RPMI 5 mM glucose + 10% FBS, 0.19 µM
[18] = RPMI 5 mM glucose + 10% FBS, 0.569 µM
[19] = RPMI 5 mM glucose + 10% FBS, 1.71 µM
[20] = RPMI 5 mM glucose + 10% FBS, 5.12 µM
[21] = RPMI 5 mM glucose + 10% FBS, 15.4 µM
[22] = RPMI 5 mM glucose + 10% FBS, 46.1 µM
[23] = RPMI 5 mM glucose + 10% dialyzed FBS, 0.000781 µM
[24] = RPMI 5 mM glucose + 10% dialyzed FBS, 0.00234 µM
[25] = RPMI 5 mM glucose + 10% dialyzed FBS, 0.00702 µM
[26] = RPMI 5 mM glucose + 10% dialyzed FBS, 0.0211 µM
[27] = RPMI 5 mM glucose + 10% dialyzed FBS, 0.0632 µM
[28] = RPMI 5 mM glucose + 10% dialyzed FBS, 0.19 µM
[29] = RPMI 5 mM glucose + 10% dialyzed FBS, 0.569 µM
[30] = RPMI 5 mM glucose + 10% dialyzed FBS, 1.71 µM
[31] = RPMI 5 mM glucose + 10% dialyzed FBS, 5.12 µM
[32] = RPMI 5 mM glucose + 10% dialyzed FBS, 15.4 µM
[33] = RPMI 5 mM glucose + 10% dialyzed FBS, 46.1 µM

CCC1=C(C)CN(C(=O)NCCc2ccc(S(=O)(=O)NC(=O)N[C@H]3CC[C@H](C)CC3)cc2)C1=O
cell viability [1]: 97.4%
cell viability [2]: 93.3%
cell viability [3]: 105%
cell viability [4]: 102%
cell viability [5]: 104%
cell viability [6]: 112%
cell viability [7]: 101%
cell viability [8]: 108%
cell viability [9]: 87%
cell viability [10]: 83.3%
cell viability [11]: 116%
cell viability [12]: 86.3%
cell viability [13]: 86.4%
cell viability [14]: 91.1%
cell viability [15]: 98.4%
cell viability [16]: 88.3%
cell viability [17]: 100%
cell viability [18]: 90.3%
cell viability [19]: 89.3%
cell viability [20]: 95.4%
cell viability [21]: 91.4%
cell viability [22]: 95.3%
cell viability [23]: 82.2%
cell viability [24]: 97.7%
cell viability [25]: 97.6%
cell viability [26]: 92.3%
cell viability [27]: 99.5%
cell viability [28]: 93%
cell viability [29]: 96.3%
cell viability [30]: 94.1%
cell viability [31]: 99.3%
cell viability [32]: 92.5%
cell viability [33]: 104%

N#Cc1c(C2CCNCC2)cc(-c2c(O)cccc2OCC2CC2)nc1N
cell viability [1]: 110%
cell viability [2]: 116%
cell viability [3]: 126%
cell viability [4]: 115%
cell viability [5]: 103%
cell viability [6]: 113%
cell viability [7]: 121%
cell viability [8]: 104%
cell viability [9]: 105%
cell viability [10]: 90.1%
cell viability [11]: 99.1%
cell viability [12]: 102%
cell viability [13]: 115%
cell viability [14]: 104%
cell viability [15]: 118%
cell viability [16]: 111%
cell viability [17]: 104%
cell viability [18]: 113%
cell viability [19]: 102%
cell viability [20]: 93.6%
cell viability [21]: 88.4%
cell viability [22]: 80.9%
cell viability [23]: 115%
cell viability [24]: 101%
cell viability [25]: 117%
cell viability [26]: 116%
cell viability [27]: 111%
cell viability [28]: 105%
cell viability [29]: 117%
cell viability [30]: 104%
cell viability [31]: 94.2%
cell viability [32]: 88.3%
cell viability [33]: 74.4%

CC(C)[C@H](CO)Nc1nc(Nc2ccc(C(=O)O)c(Cl)c2)c2ncn(C(C)C)c2n1
cell viability [1]: 116%
cell viability [2]: 126%
cell viability [3]: 122%
cell viability [4]: 132%
cell viability [5]: 128%
cell viability [6]: 118%
cell viability [7]: 109%
cell viability [8]: 108%
cell viability [9]: 79.4%
cell viability [10]: 107%
cell viability [11]: 29.6%
cell viability [12]: 119%
cell viability [13]: 116%
cell viability [14]: 118%
cell viability [15]: 128%
cell viability [16]: 134%
cell viability [17]: 131%
cell viability [18]: 131%
cell viability [19]: 115%
cell viability [20]: 87.3%
cell viability [21]: 111%
cell viability [22]: 36.1%
cell viability [23]: 122%
cell viability [24]: 125%
cell viability [25]: 123%
cell viability [26]: 137%
cell viability [27]: 124%
cell viability [28]: 140%
cell viability [29]: 127%
cell viability [30]: 122%
cell viability [31]: 90.7%
cell viability [32]: 137%
cell viability [33]: 44.1%

CNC(=O)c1cc(Oc2ccc(NC(=O)Nc3cc(C(C)(C)C)nn3-c3ccc4ncccc4c3)c(F)c2)ccn1
cell viability [1]: 123%
cell viability [2]: 121%
cell viability [3]: 121%
cell viability [4]: 128%
cell viability [5]: 127%
cell viability [6]: 170%
cell viability [7]: 135%
cell viability [8]: 155%
cell viability [9]: 157%
cell viability [10]: 156%
cell viability [11]: 122%
cell viability [23]: 119%
cell viability [24]: 124%
cell viability [25]: 125%
cell viability [26]: 140%
cell viability [27]: 151%
cell viability [28]: 154%
cell viability [29]: 160%
cell viability [30]: 158%
cell viability [31]: 155%
cell viability [32]: 164%
cell viability [33]: 123%

COC(=O)N[C@H](C(=O)N[C@@H](Cc1ccccc1)[C@@H](O)CN(Cc1ccc(-c2ccccn2)cc1)NC(=O)[C@@H](NC(=O)OC)C(C)(C)C)C(C)(C)C
cell viability [12]: 101%
cell viability [13]: 105%
cell viability [14]: 113%
cell viability [15]: 100%
cell viability [16]: 106%
cell viability [17]: 103%
cell viability [18]: 114%
cell viability [19]: 110%
cell viability [20]: 111%
cell viability [21]: 97.8%
cell viability [22]: 93.4%
cell viability [23]: 112%
cell viability [24]: 102%
cell viability [25]: 114%
cell viability [26]: 116%
cell viability [27]: 113%
cell viability [28]: 103%
cell viability [29]: 97.3%
cell viability [30]: 101%
cell viability [31]: 110%
cell viability [32]: 101%
cell viability [33]: 94.9%

COc1ccc2cc(-c3[nH]c(-c4ccc([S+](C)[O-])cc4)nc3-c3ccncc3)ccc2c1 (stereo unspecified)
cell viability [1]: 115%
cell viability [2]: 118%
cell viability [3]: 124%
cell viability [4]: 118%
cell viability [5]: 136%
cell viability [6]: 143%
cell viability [7]: 148%
cell viability [8]: 126%
cell viability [9]: 120%
cell viability [10]: 143%
cell viability [11]: 111%
cell viability [12]: 100%
cell viability [13]: 103%
cell viability [14]: 114%
cell viability [15]: 113%
cell viability [16]: 114%
cell viability [17]: 99.1%
cell viability [18]: 107%
cell viability [19]: 111%
cell viability [20]: 108%
cell viability [21]: 110%
cell viability [22]: 134%
cell viability [23]: 111%
cell viability [24]: 98.5%
cell viability [25]: 106%
cell viability [26]: 118%
cell viability [27]: 121%
cell viability [28]: 113%
cell viability [29]: 130%
cell viability [30]: 123%
cell viability [31]: 127%
cell viability [32]: 150%
cell viability [33]: 119%

CCc1cc(/C(C)=N/OCc2ccc(C3CCCCC3)c(C(F)(F)F)c2)ccc1CN1CC(C(=O)O)C1
cell viability [1]: 111%
cell viability [2]: 133%
cell viability [3]: 106%
cell viability [4]: 108%
cell viability [5]: 129%
cell viability [6]: 109%
cell viability [7]: 108%
cell viability [8]: 79.1%
cell viability [9]: 66.4%
cell viability [10]: 31.8%
cell viability [11]: 40.1%
cell viability [12]: 110%
cell viability [13]: 113%
cell viability [14]: 104%
cell viability [15]: 115%
cell viability [16]: 135%
cell viability [17]: 115%
cell viability [18]: 120%
cell viability [19]: 107%
cell viability [20]: 107%
cell viability [21]: 26.8%
cell viability [22]: 20.9%
cell viability [23]: 99%
cell viability [24]: 116%
cell viability [25]: 117%
cell viability [26]: 112%
cell viability [27]: 119%
cell viability [28]: 114%
cell viability [29]: 115%
cell viability [30]: 103%
cell viability [31]: 103%
cell viability [32]: 26.6%
cell viability [33]: 29%

CCN(CC)CCOC1=CC=C(NC2=NC=C3\C=C(/C(=O)N(C)C3=N2)C4=C(Cl)C=CC=C4Cl)C=C1
cell viability [1]: 116%
cell viability [2]: 138%
cell viability [3]: 121%
cell viability [4]: 115%
cell viability [5]: 108%
cell viability [6]: 96.4%
cell viability [7]: 97.5%
cell viability [8]: 80.5%
cell viability [9]: 16.1%
cell viability [10]: 10.1%
cell viability [11]: 2.65%

CCCn1c(=O)c2[nH]c(C34CC5CC3C[C@@H](C5)C4)nc2n(CCC)c1=O
cell viability [1]: 105%
cell viability [2]: 62.9%
cell viability [3]: 92.9%
cell viability [4]: 112%
cell viability [5]: 96.2%
cell viability [6]: 125%
cell viability [7]: 104%
cell viability [8]: 105%
cell viability [9]: 107%
cell viability [10]: 99.5%
cell viability [11]: 114%
cell viability [12]: 90.5%
cell viability [13]: 92.6%
cell viability [14]: 102%
cell viability [15]: 96.5%
cell viability [16]: 87.4%
cell viability [17]: 91.5%
cell viability [18]: 86.5%
cell viability [19]: 97.2%
cell viability [20]: 90.3%
cell viability [21]: 89.9%
cell viability [22]: 95.5%
cell viability [23]: 99%
cell viability [24]: 89.2%
cell viability [25]: 92.9%
cell viability [26]: 95.5%
cell viability [27]: 107%
cell viability [28]: 98.2%
cell viability [29]: 94.3%
cell viability [30]: 95.6%
cell viability [31]: 101%
cell viability [32]: 94.8%
cell viability [33]: 100%

CN(C)c1nc(N(C)C)nc(N(C)C)n1
cell viability [1]: 101%
cell viability [2]: 113%
cell viability [3]: 100%
cell viability [4]: 105%
cell viability [5]: 96.3%
cell viability [6]: 92%
cell viability [7]: 90.5%
cell viability [8]: 97.1%
cell viability [9]: 98.7%
cell viability [10]: 82.3%
cell viability [11]: 89.9%
cell viability [12]: 96.2%
cell viability [13]: 108%
cell viability [14]: 102%
cell viability [15]: 97.4%
cell viability [16]: 99%
cell viability [17]: 95.3%
cell viability [18]: 94.6%
cell viability [19]: 92.2%
cell viability [20]: 95.9%
cell viability [21]: 95.3%
cell viability [22]: 91%
cell viability [23]: 94%
cell viability [24]: 103%
cell viability [25]: 96%
cell viability [26]: 99%
cell viability [27]: 98.4%
cell viability [28]: 103%
cell viability [29]: 101%
cell viability [30]: 89.4%
cell viability [31]: 83.9%
cell viability [32]: 90.8%
cell viability [33]: 85.6%
